Reference: the supplement of paper PMC10307832

How the values were obtained:
Assay in all cases: relative viability (nuclei count vs DMSO), 5 days (fraction); higher = more cells survive
Dasatinib + Olaparib = compound: Cc1nc(Nc2ncc(C(=O)Nc3c(C)cccc3Cl)s2)cc(N2CCN(CCO)CC2)n1 [Dasatinib] + O=C(c1cc(Cc2n[nH]c(=O)c3ccccc23)ccc1F)N1CCN(C(=O)C2CC2)CC1 [Olaparib] (partner 8 µM)
Outline: (§1)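 For relative viability, nuclei counts in treated wells were divided by those in vehicle wells. Lung cancer cell lines had been pin-tool dosed in 1536-well plates the day after seeding and cultured for 5 days, then fixed and stained in one step (final 0.05% Triton X-100, 1% formaldehyde, 1 ug/ml Hoechst) and imaged at 4×. Doses were one drug alone or a fixed anchor-drug dose plus five library-drug doses (not always all listed) in √10 steps, and values are duplicate-plate medians.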

XMD13-2 + Crizotinib = compound: C1CC1C(=O)NC2=NNC3=C2C=CC(=C3)C4=CC(=CC=C4)C(=O)NC5CC5 [XMD13-2] + C[C@@H](Oc1cc(-c2cnn(C3CCNCC3)c2)cnc1N)c1c(Cl)ccc(F)c1Cl [Crizotinib] (partner 1 µM)
Outline: as §1

XMD13-2 + Pictilisib = compound: C1CC1C(=O)NC2=NNC3=C2C=CC(=C3)C4=CC(=CC=C4)C(=O)NC5CC5 [XMD13-2] + CS(=O)(=O)N1CCN(Cc2cc3nc(-c4cccc5[nH]ncc45)nc(N4CCOCC4)c3s2)CC1 [Pictilisib] (partner 1 µM)
Outline: as §1

Dasatinib + Crizotinib = compound: Cc1nc(Nc2ncc(C(=O)Nc3c(C)cccc3Cl)s2)cc(N2CCN(CCO)CC2)n1 [Dasatinib] + C[C@@H](Oc1cc(-c2cnn(C3CCNCC3)c2)cnc1N)c1c(Cl)ccc(F)c1Cl [Crizotinib] (partner 1 µM)
Outline: as §1

Row | Cell Line | relative viability (Dasatinib + Olaparib; first compound 0.005 µM) | relative viability (Dasatinib + Olaparib; first compound 0.01581 µM) | relative viability (Dasatinib + Olaparib; first compound 0.05 µM) | relative viability (Dasatinib + Olaparib; first compound 0.1581 µM) | relative viability (Dasatinib + Olaparib; first compound 0.5 µM) | relative viability (XMD13-2 + Crizotinib; first compound 0.05 µM) | relative viability (XMD13-2 + Crizotinib; first compound 0.1581 µM) | relative viability (XMD13-2 + Crizotinib; first compound 0.5 µM) | relative viability (XMD13-2 + Crizotinib; first compound 1.581 µM) | relative viability (XMD13-2 + Crizotinib; first compound 5 µM) | relative viability (XMD13-2 + Pictilisib; first compound 0.05 µM) | relative viability (XMD13-2 + Pictilisib; first compound 0.1581 µM) | relative viability (XMD13-2 + Pictilisib; first compound 0.5 µM) | relative viability (XMD13-2 + Pictilisib; first compound 1.581 µM) | relative viability (XMD13-2 + Pictilisib; first compound 5 µM) | relative viability (Dasatinib + Crizotinib; first compound 0.005 µM) | relative viability (Dasatinib + Crizotinib; first compound 0.01581 µM) | relative viability (Dasatinib + Crizotinib; first compound 0.05 µM) | relative viability (Dasatinib + Crizotinib; first compound 0.1581 µM) | relative viability (Dasatinib + Crizotinib; first compound 0.5 µM)
1 | NCI-H1650 | 0.741 | 0.614 | 0.571 | 0.442 | 0.282 | 1.31 | 0.861 | 1.02 | 0.989 | 1.16 | 0.687 | 0.452 | 0.644 | 0.542 | 0.541 | 0.801 | 0.619 | 0.456 | 0.303 | 0.239
2 | NCI-H358 | 0.464 | 0.431 | 0.427 | 0.303 | 0.139 | 0.77 | 0.546 | 0.736 | 0.423 | 0.324 | 0.32 | 0.24 | 0.354 | 0.313 | 0.365 | 0.507 | 0.437 | 0.349 | 0.282 | 0.194
3 | NCI-H1792 | 0.385 | 0.348 | 0.411 | 0.2 | 0.0885 | 1.22 | 0.929 | 0.979 | 0.869 | 1.12 | 0.29 | 0.249 | 0.266 | 0.284 | 0.265 | 0.938 | 0.916 | 0.874 | 0.753 | 0.51
4 | COR-L 105 | 0.517 | 0.494 | 0.617 | 0.452 | 0.336 | 1 | 0.843 | 0.881 | 0.701 | 0.927 | 0.398 | 0.361 | 0.437 | 0.458 | 0.335 | 0.71 | 0.59 | 0.528 | 0.286 | 0.285
5 | LU99A | 0.283 | 0.259 | 0.265 | 0.188 | 0.166 | 0.581 | 0.489 | 0.558 | 0.429 | 0.393 | 0.298 | 0.334 | 0.32 | 0.284 | 0.254 | 0.538 | 0.458 | 0.473 | 0.274 | 0.301
6 | NCI-H1395 | 0.431 | 0.46 | 0.376 | 0.355 | 0.311 | – | – | – | – | – | 0.724 | 0.646 | 0.623 | 0.574 | 0.528 | – | – | – | – | –
7 | NCI-H522 | 0.707 | 0.513 | 0.591 | 0.52 | 0.549 | – | – | – | – | – | – | – | – | – | – | – | – | – | – | –
8 | NCI-H1793 | 0.69 | 0.404 | 0.385 | 0.367 | 0.521 | – | – | – | – | – | 0.288 | 0.442 | 0.373 | 0.403 | 0.192 | – | – | – | – | –
9 | SW 900 | 0.65 | 0.436 | 0.395 | 0.324 | 0.336 | – | – | – | – | – | – | – | – | – | – | – | – | – | – | –
10 | NCI-H1563 | – | – | – | – | – | 0.91 | 0.898 | 0.77 | 0.852 | 1.02 | 0.581 | 0.665 | 0.737 | 0.651 | 0.605 | 0.803 | 0.673 | 0.679 | 0.592 | 0.577
11 | NCI-H2342 | 0.564 | 0.397 | 0.364 | 0.274 | 0.285 | – | – | – | – | – | – | – | – | – | – | – | – | – | – | –
